Tests used:
[1] = target: T1, PAF binding, dog platelets (Canis lupus familiaris, UniProt A0A8I3NSH0); assay: PAF Binding Assay (3H-PAF binding to washed dog platelets); details: 10 minutes at room temperature
T1 sequence (A0A8I3NSH0 1-343): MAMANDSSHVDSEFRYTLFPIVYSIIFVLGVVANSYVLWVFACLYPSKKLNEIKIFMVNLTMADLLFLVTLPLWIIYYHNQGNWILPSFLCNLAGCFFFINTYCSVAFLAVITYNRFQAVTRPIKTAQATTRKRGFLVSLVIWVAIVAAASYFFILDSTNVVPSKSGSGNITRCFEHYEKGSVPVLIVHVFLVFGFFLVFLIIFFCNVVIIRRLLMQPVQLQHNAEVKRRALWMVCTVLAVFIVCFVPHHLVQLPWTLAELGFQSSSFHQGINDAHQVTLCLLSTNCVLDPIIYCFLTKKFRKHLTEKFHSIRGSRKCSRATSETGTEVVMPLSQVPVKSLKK
Procedure: The binding assay was performed in 400 μl polyethylene microcentrifuge tubes (Beckman) containing 50 μl of an oil mixture of 2 parts Siliconol AR200 (Serva): 1 part Silicone Fluid (Arthur H. Thomas). Buffer, standards, or analogs 150 μl total volume) were added to the tubes. Radiolabelled ^3 H-PAF (50 μl) was then added to the tubes. The reaction was started by the addition of 50 μl of dog platelets (2×10^7 platelets). The tubes were capped, inverted several times to mix, and incubated for 10 minutes at room temperature. The platelets were separated from the incubation mixture by centrifuging 1 minute in a Beckman Microfuge B centrifuge. The tip of the microfuge tube was cut off, and the platelets were washed out of the tip with 200 μl of 50% methanol (Burdick and Jackson). Aquasol (NEN, 10 ml) was added and the radioactivity in the samples was determined using an LS 8100 Beckman liquid scintillation counter linked to a Techtran tape recorder. Data was processed through an in-house computer system. Alternatively, radioactivity was determined using a Searle Mark III liquid scintillation counter linked to a Iso-Data microprocessor.
Blood was collected from anesthesized or unanesthesized dogs into 5ml plastic centrifuge tubes containing 3.8% sodium citrate as the anticoagulant (1 volume of citrate/9 volumes of blood). The red cells were removed by centrifugation for 15 minutes at 600 rpm (100-125 g) at room temperature. An aliquot of the supernatant platelet rich Plasma (PRP) was saved for cell counting and the remainder was acidified to pH 6.5 with 0.15M citric acid. The platelet pellet was obtained after a 10 minute centrifugation at 2000 rpm (1000 g) at room temperature. Washed platelets were prepared by resuspending the platelet pellet once with PBS containing 1 mM EDTA, centrifuging as noted, and then resuspending the platelets in 0.1% BSA-PBS. An aliquot of the washed platelets was counted, platelets used for binding assays were diluted to 2×10^7 platelets/assay tube (4×10^8 platelets/ml).

[2] = system: PAF-Induced Bronchoconstriction; assay: PAF-Induced Bronchoconstriction Assay; format: in vivo, guinea pig; details: for inhibition in vivo at 1 mg/kg / inhibition in vivo at 50 mg/kg: Cavia porcellus; for inhibition in vivo at 1 mg/kg: 1 min; for inhibition in vivo at 50 mg/kg: po, 2 hours pretreatment
Procedure: The in vivo ability of compounds to inhibit PAF-induced bronchoconstriction in guinea pigs was assessed by the intravenous and oral routes of administration. The intravenous technique utilized male guinea pigs (Hartley strain, Charles River) weighing 400-600 g. Animals were anesthetized with urethane (2 g/kg) intraperitoneally and a polyethylene cannula was inserted into the jugular vein for intravenous drug administration. Tracheal pressure ([…]) was recorded from a Statham pressure transducer (P 32 AA). Propranolol was administered 5 minutes prior to challenge with PAF. Two minutes later spontaneous breathing was arrested with succinylcholine chloride (1.2 mg/kg) administered intravenously, and the animals were ventilated with a Harvard (Model 680) small animal respirator set at 40 breaths/min and 4.0 cc stroke volume. Control vehicle or test drug was administered through the cannula into the jugular vein 1 minute before the animals were challenged with a maximum constrictory dose of PAF (1.0 μg/kg) given intravenously. The change in tracheal pressure was averaged for four control and four drug-treated animals and percent inhibition was calculated.
For determination of oral activity, animals were dosed with test compound or vehicle two hours prior to challenge with PAF (1.0 μg/kg, i.v.).
The change in tracheal pressure is determined by subtracting the steady state baseline achieved after administration of succinylcholine from the peak bronchoconstriction seen after challenge with PAF. The mean change in tracheal pressure is calculated for each test compound and compared to the mean change in tracheal pressure for the control animals to give the percent inhibition of bronchoconstriction. The standard error is calculated as the standard error of the mean.

[3] = 1 mg/kg iv, 1 minute pretreatment

| Structure (SMILES) | IC50 [1] | inhibition in vivo at 1 mg/kg [2, 3] | inhibition in vivo at 50 mg/kg [2] | PAF-Induced Bronchoconstriction % Inhibition, 1 mg/kg iv [2, 3] |
| --- | --- | --- | --- | --- |
| CCCCc1cc(C(=O)NCCCCc2cccnc2)ccc1-c1ccc(OC)c(OC)c1 [2-Butyl-3',4'-dimethoxy-N-[4-(3-pyridinyl)butyl][1,1'-biphenyl)-4-carboxamide] |  | 6 ± 4% |  |  |
| COc1ccc(-c2ccc(C(=O)NCCCCc3cccnc3)cc2-c2ccc(OC)cc2)cc1 [3,4-bis-(4,Methoxyphenyl)-N-[4-(3-pyridinyl)butyl]-benzamide] | 125 nM | 26 ± 6% |  |  |
| Cc1ccc(-c2ccc(-c3nnn(CCCc4cccnc4)n3)cc2)cc1C [3-[3-[5-(3',4'-Dimethyl-[1,1'-biphenyl]-4-yl)-2H-tetrazol-2-yl]propyl]pyridine] | > 1000 nM | 11 ± 3% |  |  |
| Cc1ccc(-c2ccc(-c3nnn(CCCCc4cccnc4)n3)cc2)cc1C [3-[4-[5-(3',4'-Dimethyl-[1,1'-biphenyl]-4-yl)-2H-tetrazol-2-yl]butyl]pyridine] | > 1000 nM | 17 ± 15% |  |  |
| Cc1ccc(-c2ccc(-c3nnn(CCCCCCc4cccnc4)n3)cc2)cc1C [3-[6-[5-(3',4'-Dimethyl-[1,1'-biphenyl]-4-yl)-2H-tetrazol-2-yl]hexyl]pyridine] | > 1000 nM | 40 ± 4% |  |  |
| CCCCc1cc(C(=O)N[C@H](C)CCCc2cccnc2)ccc1-c1ccc(OC)c(OC)c1 [(R)-2-Butyl-3',4'-dimethoxy-N-[1-Methyl-4-(3-pyridinyl)butyl][1,1'-biphenyl]-4-carboxamide] |  | 55 ± 12% |  |  |
| COc1ccc(-c2ccc(C(=O)N[C@H](C)CCCc3cccnc3)cc2)cc1OC [(R)-3',4'-Dimethoxy-N-[1-methyl-4-(3-pyridinyl)butyl][1,1'-biphenyl]-4-carboxamide] |  | 65 ± 11% | 88 ± 3% |  |

The next lines start with results.

| IC50 [1] | Structure (SMILES) | inhibition in vivo at 1 mg/kg [2, 3] | inhibition in vivo at 50 mg/kg [2] | PAF-Induced Bronchoconstriction % Inhibition, 1 mg/kg iv [2, 3] |
| --- | --- | --- | --- | --- |
| 300 nM | COc1ccc(-c2ccc(C(=O)NCCCCc3cccnc3)cc2OC)cc1OC [2,3',4'-trimethoxy-N-[4-(3-pyridinyl)butyl]-[1,1'-biphenyl]-4-carboxamide] | 58 ± 10% |  |  |
| 200 nM | COc1ccc(-c2ccc(C(=O)NCCCCc3cccnc3)cc2Br)cc1OC [2-Bromo-3',4'-dimethoxy-N-[4-(3-pyridinyl)butyl]-[1,1'biphenyl]-4-carboxamide] | 81 ± 10% | 74 ± 12% |  |
| 500 nM | CCCCc1cc(C(=O)NCCCCc2cccnc2)ccc1-c1ccccc1 [2-Butyl-N-[4-(3-pyridinyl)butyl][1,1'-biphenyl]-4-carboxamide] | 27 ± 10% |  |  |
| 200 nM | COc1ccc(-c2ccc(C(=O)NCCCCc3cccnc3)cc2[N+](=O)[O-])cc1OC [2-Nitro-3',4'-dimethoxy-N-[4-(3-pyridinyl)-butyl][1,1'-biphenyl]-4-carboxamide] | 81 ± 15% | 62 ± 15% |  |
| 60 nM | CCCc1cc(C(=O)NCCCCc2cccnc2)ccc1-c1ccccc1 [2-Propyl-N-[4-(3-pyridinyl)butyl][1,1'-biphenyl]-4-carboxamide] | 38 ± 8% |  |  |
| 600 nM | Cc1ccc(-c2ccc(C(=S)NCCCCc3cccnc3)cc2)cc1C [3',4'-Dimethyl-N-[4-(3-pyridinyl)butyl][1,1-biphenyl]-4-carbothioamide] |  |  | potentiation |
| > 1000 nM | CCCCc1ccc(C(=O)NCCCCc2cccnc2)cc1CCCC [3,4-Dibutyl-N-[4-(3-pyridinyl)butyl]benzamide] |  |  |  |
| 400 nM | O=C(NCCCCc1cccnc1)c1ccc(-c2cccc(F)c2)c(-c2cccc(F)c2)c1 [3,4-bis-(3-Fluorophenyl)-N-[4-(3-pyridinyl)butyl]-benzamide] | 12 ± 2% |  |  |
| 250 nM | O=C(NCCCCc1cccnc1)c1ccc(C2CCCCC2)cc1 [4-Cyclohexyl-N-[4-(3-pyridinyl)butyl]-benzamide] | 17 ± 7% |  |  |
